Paper PMC6884575, “Suppression of FOXM1 activities and breast cancer growth in vitro and in vivo by a new class of compounds” (NPJ Breast Cancer, 2019)

Legend:
[1] = Pharmacokinetics in mice after single s.c. or oral dose; format: in vivo, female CD1 mice; conditions: for AUC / Cmax / half-life: female, CD1, mouse, 60 mg/kg, single dose, plasma
Method: The pharmacokinetics of compounds were monitored after single dose administration into female CD1 mice (7–9 weeks of age) via s.c. injection or oral gavage, as described.[39] For s.c. injection, each compound was dissolved in DMSO and then mixed with corn oil for a total injection volume of 100 μL (10% DSMO + 90% corn oil) per mouse. For oral gavage, compounds were administered in a 200 µL formulation of 9/0.5/0.5/90 parts of PEG400/Tween80/Povidone/0.5% Carboxymethylcellulose in DI water. […] Compounds were quantified by LC-MS/MS at the University of Illinois Metabolomics Core Facility. The data were fitted to a non-compartment model.

[2] = test system: human breast cancer cell lines (DT22, MCF7, T47D, BT474, MDA-MB-453, MDA-MB-468, MDA-MB-231); experiment: Cell proliferation (WST-1) in panel of breast cancer cell lines; format: cell-based; conditions: cells in culture
Method: WST-1 assay (Roche, Basel, Switzerland) was used to quantify cell viability as described.[38] Absorbance was measured at 450 nm using a VICTOR X5 PerkinElmer 2030 Multilabel Plate Reader. All assays were performed in triplicate and analyzed using Graph Pad Prism 8.0.

FOXM1 [3] = target: T1, FOXM1 (Homo sapiens, UniProt Q08050); experiment: Intracellular localization of FOXM1 (immunofluorescence, nuclear/cytoplasmic fractionation); format: cell-based; design: endogenous in cells; host or cells: MDA-MB-231, MCF7; conditions: 24 h, Western blot of nuclear and cytoplasmic extracts
T1 sequence (Q08050 1-763): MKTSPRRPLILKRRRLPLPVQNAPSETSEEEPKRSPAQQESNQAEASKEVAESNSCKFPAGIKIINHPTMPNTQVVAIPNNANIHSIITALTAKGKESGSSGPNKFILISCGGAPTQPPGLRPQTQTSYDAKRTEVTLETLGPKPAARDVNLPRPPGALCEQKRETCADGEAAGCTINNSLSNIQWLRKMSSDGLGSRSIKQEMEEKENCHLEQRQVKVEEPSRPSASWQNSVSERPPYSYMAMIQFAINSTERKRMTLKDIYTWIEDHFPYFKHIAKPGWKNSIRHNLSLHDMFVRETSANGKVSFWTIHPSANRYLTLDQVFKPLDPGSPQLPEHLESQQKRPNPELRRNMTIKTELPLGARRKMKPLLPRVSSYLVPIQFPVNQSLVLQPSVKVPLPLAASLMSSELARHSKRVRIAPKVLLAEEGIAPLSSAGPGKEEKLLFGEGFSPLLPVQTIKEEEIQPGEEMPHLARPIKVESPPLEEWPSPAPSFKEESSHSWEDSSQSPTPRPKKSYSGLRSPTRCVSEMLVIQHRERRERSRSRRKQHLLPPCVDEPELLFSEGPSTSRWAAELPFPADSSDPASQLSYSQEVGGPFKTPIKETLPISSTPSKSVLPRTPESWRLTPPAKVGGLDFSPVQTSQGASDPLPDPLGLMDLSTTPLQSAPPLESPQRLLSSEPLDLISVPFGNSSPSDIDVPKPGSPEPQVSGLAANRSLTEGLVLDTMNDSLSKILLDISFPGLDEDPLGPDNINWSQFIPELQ
Method: (§1) In some cases, treatments with compound were done in the presence of the proteasome inhibitor MG132 (Calbiochem) as described in the figure legend. […] Band intensities were analyzed with Licor Odyssey 2.1 software. All blots shown together derive from the same experiment and were processed in parallel. Full uncropped images of blots are shown as supplementary figures in the Supplementary Information file. Molecular weight markers were Rainbow markers from GE Healthcare (38–225 kDa) or Precision Plus Dual Color Markers from Biorad (37–250 kDa).

FOXM1 [4] = target: T1, FOXM1; experiment: Cellular FOXM1 protein level by Western blot; format: cell-based; design: endogenous in cells; host or cells: MDA-MB-231, MCF7; conditions: MDA-MB-231 or MCF7 cells over time; NB-55 5/8 µM, NB-73 1.5/4 µM, NB-115 4 µM, FDI-6 8 µM
Method: as §1, with “For Western blot analysis, whole-cell extracts were prepared using 1X RIPA lysis buffer (Thermo Fisher) supplemented with 1X protease inhibitor cocktail (Millipore Sigma). […] In some” for “In some”

FOXM1 [5] = target: T1, FOXM1; experiment: tr-FRET competitive binding assay with Fl-NB-72 probe; design: we attached a terbium donor to purified, full length FOXM1 through a streptavidin-biotin linker; conditions: calculated from IC50 values; Supplementary Table 1; read-out: Ki, affinity for binding to FOXM1 protein
Method: Competitive binding assays of compound binding to FOXM1 by tr-FRET were done in FRET buffer (20 mM Tris, pH 7.5, 50 mM NaCl, 0.01% NP-40 detergent, 10% glycerol) with 0.3 mg/ml ovalbumin and 0.1 mM butylated hydroxy-anisole added fresh daily. Solutions of the protein, fluorescent probe and compound dilutions were prepared at 3× concentrations, the final dilution taking place as they were mixed together in equal portions on the microtiter plate.
Final concentrations were 10^−5 M to 10^−9 M, with the last point being buffer only, no compound. Fluorescein-NB-72 (Fl-NB- 72) was prepared at 1 mM in DMF and stored at −20 °C. It was diluted into FRET buffer to give 100 nM in the assay. Incubations were done in duplicate on black Molecular Devices 96-well microtiter plates. 5 μl of Fl-NB-72 and 5 μl of the compound dilutions, were mixed together on the plate. To this was added 5 µl biotin-FoxM1 and incubated in the dark at room temperature, for 1 h. […] To correct for background signals, biotin-FOXM1 was omitted, and diffusion-enhanced FRET incubations were done in duplicate on black Molecular Devices 96-well microtiter plates. Five microliter of Fl-NB-72 and 5 μl of the compound solutions were mixed together and then 5 µl of FRET buffer plus SaTb was added, mixed and incubated in the dark at room temperature, for 1 h. The tr-FRET signals measured as above were subtracted as a background from the first incubations that contained biotin-FOXM1. Graphs were prepared using Graph Pad/Prism 4.

[6] = test system: FOXM1 target gene expression in MCF7 cells; experiment: FOXM1 target gene expression by qRT-PCR; format: cell-based, human; conditions: MCF7, 24 h, compound at its IC50 for proliferation
Method: Total RNA was isolated using TRIzol (Invitrogen) and reverse transcribed using […] reverse transcriptase (New England BioLabs). Real-time PCR was performed using SYBRgreen PCR Master Mix (Quantabio) as described.[15] Relative mRNA levels of genes were normalized to the housekeeping gene 36B4, and fold-change calculated relative to the vehicle treated samples. Results are the average ± SD from at least two independent experiments carried out in triplicate. Primer sequences for the genes studied were obtained from the Harvard Primer Bank. Sequences are available on their website.

MCF7 cells = experiment: RNA-Seq gene regulation in MCF7 cells; format: cell-based, human; conditions: for genes regulated more than 2-fold (Venn diagram): MCF7, 9 h treatment, p < 0.05, FDI-6 20 µM
Method: (§2) For gene expression analysis, total RNA was extracted from cells using Trizol reagent and further cleaned using the Turbo DNase and RNAqueous kits (ThermoFisher). Cells were treated with Veh (0.1% EtOH), or with the compounds indicated for 9 h or 24 h. Once the sample quality and replicate reproducibility were verified, samples from each group were subjected to sequencing. RNA at a concentration of 100 ng/µl in nuclease-free water was used for library construction. cDNA libraries were prepared with the mRNA-TruSeq Kit (Illumina, Inc.). In brief, the poly-A containing mRNA was purified from total RNA, the RNA was fragmented, double-stranded cDNA was generated from fragmented RNA, and adapters were ligated to the ends.
The paired-end read data from the HiSeq 4000 were processed and analyzed through a series of steps. Base calling and de-multiplexing of samples within each lane were done with Casava 1.8.2. The RNA sequences were prepared with Illumina’s TruSeq Stranded mRNAseq Sample Prep kit. Reads were trimmed of adapters and low expression data using Trimmomatic version 0.38.[42] The STAR alignment tool version 2.5.3a was used to align the sequenced reads to the GRCh37 human genome from Ensembl.[43] Gene counts were calculated using subread version 1.5.2.[44],[45] The edgeR Bioconductor package in R was used for normalization and differential expression analysis. Default normalization methods were used, specifically trimmed mean of M values or TMM was used to calculate the normalized expression values. This method calculates the weighted trimmed mean of the log expression ratios in a gene-wise fashion.[46],[47] We considered genes with fold-change > 2 and p-value < 0.05 as statistically significant, differentially expressed.

[7] = test system: FOXM1-regulated genes in DT22 tumors; experiment: FOXM1-regulated gene expression in xenograft tumors by q-PCR; format: in vivo, NSG mice; conditions: 10 mg/kg NB-73 s.c., end of treatment
Source text: Primer sequences for the genes studied were obtained from the Harvard Primer Bank. Sequences are available on their website.

MDA-MB-231 cells [8] = experiment: Cell cycle analysis by flow cytometry; format: cell-based, human; conditions: synchronized, released 24 h, 1.5, 3.0, 4.5 µM
Method: Cells were synchronized by double thymidine block prior to cell cycle analysis by Propidium Iodide (PI) staining. Briefly, the cells were blocked with 2 mM thymidine for 18 h, then released with fresh media for 8 h followed by re-blocking with thymidine for another 16 h. Following the second block, the cells were released with or without treatments with the NB compounds and cells were collected and fixed in 70% ethanol at the time points indicated. After alcohol fixation for 2 h, the cells were washed with cold 1XPBS followed by staining with 50 µg/ml PI solution in PBS with addition of 5 µg/ml RNAse A for at least 4 h. The cells were then analyzed by the Flow Cytometry analyzer BD LSR II for percentage of cells in G1/G0, S, and G2/M phases of the cell cycle.

[9] = test system: FOXM1 target genes in MDA-MB-231 cells; experiment: RNA-Seq Gene Set Enrichment Analysis against FOXM1 target gene sets; format: cell-based, human; conditions: NB-73 […] 24 h, siFOXM1 25 nM 72 h
Method: as §2
The paired-end read data from the HiSeq 4000 were processed and analyzed through a series of steps. […] Reads were trimmed of adapters and low expression data using Trimmomatic version 0.38.[42] The STAR alignment tool version 2.5.3a was used to align the sequenced reads to the GRCh37 human genome from Ensembl.[43] Gene counts were calculated using subread version 1.5.2.[44],[45] […]
Gene Set Enrichment Analysis (GSEA)[48] was used for examination of our genome-wide expression profiles. Overrepresented gene ontology (GO) biological processes were determined by the web-based DAVID Bioinformatics Resources database.[49],[50] […]

MDA-MB-231 cells [10] = experiment: Apoptosis by AnnexinV/propidium iodide flow cytometry; format: cell-based, human; conditions: 1.5 or 3 µM, 24 h or 72 h
Method: (§3) The cells were analyzed for percentage of apoptotic cells following 24 h or 72 h of vehicle or compound treatment by staining with the Alexa Fluor® 488 Annexin V/Dead Cell Apoptosis Kit (Thermo Fisher) and flow cytometry according to the manufacturer’s protocol. Caspase activity in the cells after treatment with control vehicle or compounds was determined using the Caspase-Glo 3/7 Assay system (Promega) in a 96-well format following the manufacturer’s instructions. Supplementary Figs 6 and 7 exemplify the gating strategy used for the cell cycle and apoptosis flow cytometry analyses.

[11] = test system: DT22 breast tumor xenografts; experiment: DT22 human breast tumor xenograft growth in NSG mice; format: in vivo; conditions: for tumor growth: DT22 tumors, NSG mice
Method: For examination of the effects of compounds on breast tumor growth suppression, intact female NOD/SCID-gamma (NSG) mice were used as detailed previously.[39] DT-22 breast cancer cells (1 × 10^6 cells/mouse) were injected s.c. into the right axial mammary gland. Mice received s.c. injection or oral gavage daily or every second or third day as indicated, with vehicle or treatment compound, and tumor volume (length × width^2/2) was monitored over time.

Caspase 3/7 activity = experiment: Caspase Glo 3/7 assay; format: cell-based, human; conditions: 1.5 or 3 µM, 24 h
Method: as §3

[12] = test system: tamoxifen-resistant MCF7 breast cancer cells; experiment: Proliferation of tamoxifen-resistant MCF7 cells; format: cell-based, human; conditions: 6 days, cell numbers
Method: resistant MCF7 cells. Cells were treated with NB-73 or trans-hydroxytamoxifen (OH-
Tam) for 6 days and cell numbers were monitored. Values are mean ± SD of three
(1 picture or pasted object on this page, not shown here)

Nc1c(C(=O)Nc2ccc(F)cc2)sc2nc(-c3cccs3)cc(C(F)(F)F)c12 [FDI-6, reference compound]
blood levels ([1]; oral, 40 mg/kg): undetectable
blood levels ([1]; s.c., 20 mg/kg): only very low blood levels
potency in cells in culture [2]: potency similar to NB-55
intracellular localization of FOXM1 (FOXM1 [3]): does not change the intracellular localization of FOXM1
intracellular level of FOXM1 (FOXM1 [4]): minimally affected
Ki (FOXM1 [5]): 143 nM
expression of ATF3, a gene suppressed by FOXM1 [6]: increased expression of ATF3
expression of FOXM1 stimulated target genes (FOXM1C, AURKB, CCNB1, PLK1) [6]: significantly reduced the expression
genes regulated that overlapped with NB-73 regulated genes (MCF7 cells; MCF7, 9 h, more than 2-fold, FDR < 0.05): 48%
genes regulated more than 2-fold (Venn diagram) (MCF7 cells): 664 genes

C[N+]1(CCCCCCOc2ccc(C(=C3C4CC5CC(C4)CC3C5)c3ccc(OCCCCCC[N+]4(C)CCCCCC4)cc3)cc2)CCCCCC1 [NB-73]
blood levels of compound ([1]; after oral administration): only very low levels
blood levels of compound ([1]; after s.c. injection): very high blood levels
AUC ([1]; oral): 0.015 µM·h
Cmax ([1]; oral): 5.5 nM
half-life ([1]; oral): 40.3 h
AUC ([1]; sc): 158 µM·h
Cmax ([1]; sc): 5300 nM
half-life ([1]; sc): 31.4 h
expression of FOXM1-regulated genes in tumors [7]: greatly reduced
percent of cells in G2/M (MDA-MB-231 cells [8]): large increase in the percent of cells in G2/M
percent of cells in S phase (MDA-MB-231 cells [8]): decrease in the percent of cells in S phase
normalized enrichment score (NES), FOXM1 target gene set [9]: -1.32
percent of apoptotic cells (MDA-MB-231 cells [10]): increased the percent of apoptotic cells
tumor growth ([11]; 5 mg/kg s.c. daily then every other day from day 21): reduced tumor growth
tumor growth ([11]; 10 mg/kg s.c. daily then every other day from day 21): more markedly suppressed growth
tumor growth ([11]; s.c., 20 mg/kg every other day for 10 days then 10 mg/kg every other day): greatly suppress tumor growth
tumor growth in vivo ([11]; low doses (2–20 mg/kg) s.c. daily or every other day): greatly suppress tumor growth
expression of ATF3, a gene suppressed by FOXM1 [6]: increased expression of ATF3
expression of FOXM1 stimulated target genes (FOXM1C, AURKB, CCNB1, PLK1) [6]: significantly reduced the expression
caspase 3/7 activity (Caspase 3/7 activity): increased
genes regulated more than 2-fold (Venn diagram) (MCF7 cells): 870 genes
proliferation of tamoxifen-resistant MCF7 cells [12]: effectively suppressed the proliferation
